In assay [1] the test system is Staph. aureus. The settings on record: bacterium 1 of Table II (Staph. aureus); from EP 0165375; cited from earlier work.
Assay [2] concerns Ps. aeruginosa. The settings on record: bacterium 4 of Table II (Ps. aeruginosa); from EP 0165375; cited from earlier work.
Assay [3] concerns E. coli. The settings on record: bacterium 2 of Table II (E. coli); from EP 0165375; cited from earlier work.
For assay [4] the following is noted: Gerster c.s., 25th Intersc. Conf. Antimicrob. Agents and Chemotherapy, 1985; cited from earlier work.
Assay [5] concerns Ps. aeruginosa. In words: Antibacterial activity, MIC and MBC (Table II). It counts as cell-based. The settings on record: assay in duplicate (two lines); for MBC: Minimum Bactericidal Concentration; for MIC: Minimum Inhibitory Concentration. The text has this: (§1) GBR 23790 is (S)-9-fluoro-3-methyl-10-(4-methyl-1-piperazinyl)-2,3-dihydro-7-oxo-7H-pyrido[1,2,3-de][1,4]-benzothiazine-6-carboxylic acid, which is S-ofloxacin, but with the ring oxygen atom substituted by a ring sulfur atom. • MIC = Minimum Inhibitory Concentration (mg/I) • MBC = Minimum Bactericidal Concentration (mg/I) Each assay has been carried out in duplicate. GBR 23790 in racemic form is known from EP 0165375 (compound (p) in Table I). Its MIC-values, are for bacteria 1, 2 and 4 in the above Table II, resp. 0.78, 0.78 and 50.

Another assay has as its system Strep. faecalis. The assay is described as follows: Antibacterial activity, MIC and MBC (Table II). It counts as cell-based. The conditions noted are these: Enterococcus faecalis, assay in duplicate (two lines); for MBC: Minimum Bactericidal Concentration; for MIC: Minimum Inhibitory Concentration.
Excerpt: as §1

The subject of assay [6] is E. coli. The assay is described as follows: Antibacterial activity, MIC and MBC (Table II). It counts as cell-based. The conditions noted are these: Escherichia coli, assay in duplicate (two lines); for MBC: Minimum Bactericidal Concentration; for MIC: Minimum Inhibitory Concentration.
Excerpt: as §1

Assay [7] concerns Staph. aureus. In words: Antibacterial activity, MIC and MBC (Table II). The settings on record: Minimum Inhibitory Concentration, assay in duplicate (two lines). It counts as cell-based.
Excerpt: as §1

The mark [8] stands for this setting: Pseudomonas aeruginosa, read-out: MBC.

Values after ≈ are worked out from the molar mass of the structure shown. Read-outs that look alike come from different tables or passages of the source.

`CC1CSc2c(N3CCN(C)CC3)c(F)cc3c(=O)c(C(=O)O)cn1c23` (racemic) [GBR 23790 in racemic form]: the MIC-values with Staph. aureus [1] was 0.78 mg/I; in the assay with Ps. aeruginosa [2], 50 mg/I; in the assay on E. coli [3], 0.78 mg/I.

Take `Cc1c(F)cc2c(=O)c(C(=O)O)cn3c2c1CCC3C` (single isomer, unassigned) [(R)-(+)-isomer, 6,7-dihydro-5,8-dimethyl-9-fluoro-1-oxo-1 H,5H-benzo[ij]quinolizine-2-carboxylic acid]: the “antibacterial activity in vitro” value in assay [4] is given as “much less active”.

As for `Cc1c(F)cc2c(=O)c(C(=O)O)cn3c2c1CC[C@@H]3C` [(S)-(-)-isomer of 6,7-dihydro-5,8-dimethyl-9-fluoro-1-oxo-1 ] [6,7-dihydro-5,8-dimethyl-9-fluoro-1-oxo-1 H,5H-benzo[ij]quinolizine-2-carboxylic acid], the “antibacterial activity in vitro” value in assay [4] was “potent antibacterial activity”.

`C[C@H]1COc2c(N3CCN(C)CC3)c(F)cc3c(=O)c(C(=O)O)cn1c23` [(S)-ofloxacin, (S)-(-)-9-Fluoro-2,3-dihydro-3-methyl-10-(4-methyl-1-piperazinyl)-7-oxo-7H-pyrido[1,2,3-de][i ,4]benzoxazine-6-carboxylic acid]: the MBC worked out at 1.25 mg/I in the assay with Ps. aeruginosa [5], 0.63 µg/mL (≈ 1.74 µM) in the assay with Ps. aeruginosa [5] (setting [8]), 1.25 µg/mL (≈ 3.46 µM) against Strep. faecalis and 0.04 µg/mL (≈ 0.111 µM) in the assay with E. coli [6]. Further, the MIC came out at 0.63 µg/mL (≈ 1.74 µM) in the assay with Ps. aeruginosa [5] (Pseudomonas aeruginosa), 1.25 µg/mL (≈ 3.46 µM) in the assay with Strep. faecalis and 0.04 µg/mL (≈ 0.111 µM) in the assay on E. coli [6].

Regarding `C[C@H]1CSc2c(N3CCN(C)CC3)c(F)cc3c(=O)c(C(=O)O)cn1c23` [GBR 23790, (S)-9-fluoro-3-methyl-10-(4-methyl-1-piperazinyl)-2,3-dihydro-7-oxo-7H-pyrido[1,2,3-de][1,4]-benzothiazine-6-carboxylic acid], the MBC was 2.5 µg/mL (≈ 6.62 µM) in the assay on Ps. aeruginosa [5] (setting [8]), 2.5 µg/mL (≈ 6.62 µM) against Strep. faecalis and 0.08 µg/mL (≈ 0.212 µM) in the assay on E. coli [6]. Besides, the MIC against Ps. aeruginosa [5] (Pseudomonas aeruginosa) worked out at 1.25 µg/mL (≈ 3.31 µM); with Staph. aureus [7], 0.16 mg/I; in the assay with Staph. aureus [7] (Staphylococcus aureus, read-out: MIC), 0.08 µg/mL (≈ 0.212 µM); with Strep. faecalis it was 1.25 µg/mL (≈ 3.31 µM); with E. coli [6], 0.08 µg/mL (≈ 0.212 µM).

These data come from patent EP0368410A2, “Optically active benzoxazines and bezothiazines and a process for their stereospecific preparation” (GIST-BROCADES N.V., priority 1988, dated 1990).
